The text below walks through data of patent US20230094952A1, “Method for Culturing Hematopoietic Stem Cells” (Sumitomo Pharma Co., Ltd., priority 2019, published 2023).

SMILES strings stand for the structures.

The experiment has as its system mouse long-term hematopoietic stem cells. Nature of the experiment: Reproducibility and concentration dependence test: 1-week culture of sorted Hoxb5-tri-mCherry mouse long-term hematopoietic stem cells, flow cytometry. It counts as cell-based. The note with it: day 7 of culture, n=2. As to the method: Mice with insertion of a nucleic acid sequence containing three copies of a gene encoding the fluorescent protein mCherry to the C terminus of the mouse endogenous HoxB5 gene (Hoxb5-tri-mCherry) were used (triple-mCherry Hoxb5 knock-in mice; Non Patent Literature 1). The mice were housed under environmental conditions such that the room temperature and the humidity were 20 to 26° C. and 40 to 70%, respectively, under light for 12 hours and under dark for 12 hours (illumination: 8:00 a.m. to 8:00 p.m.).
Bone marrow cells were collected from the tibia, femur, humerus, and pelvis in each side of each of the mice, and gathered in a mortar. A buffer obtained by adding thermally deactivated bovine serum (manufactured by Gibco) at a final concentration of 2% and EDTA at a final concentration of 2 mM to Ca^2+-free and Mg^2+-free PBS was added, and the resultant was broken with a pestle to obtain a cell population including hematopoietic stem cells.
First, the thus-obtained cell population including hematopoietic stem cells was passed through strainers (meshes) of 100 μm, 70 μm, and 40 μm. The cell population was stained with an APC-binding anti-c-Kit (2B8) and fractionated with anti-APC magnetic beads and an LS column (both manufactured by Miltenyi Biotec) to obtain a cell population enriched with hematopoietic stem cells and progenitor cells.
Subsequently, cells being c-Kit-positive were stained with antibodies for the following cell surface markers.
Staining with the antibodies was performed at 4° C., and the cells were incubated for 30 minutes. For staining with the CD34 antibody, the cells were incubated for 90 minutes. Dead cell staining was performed with SYTOX Red Dead Cell Stain (manufactured by Life Technologies) in accordance with a method recommended by the manufacturer.
Flow cytometry analysis and cell classification (cell sorting) were performed with a FACS Aria II cell sorter (manufactured by BD Biosciences), wherein Lineage-negative, c-Kit-positive, Sca-1-positive, Flk2-negative, CD34-negative or weakly CD34-positive, CD150-positive, and mCherry-positive fractions were regarded as long-term hematopoietic stem cells, and analysis was performed with the software FlowJo (manufactured by Tree Star, Inc.).
The cells after classification were seeded in a 96-well plate. A cell culture medium was prepared by adding Stem Cell Factor (SCF, manufactured by PeproTech, Inc.) and Thrombopoietin (TPO, manufactured by PeproTech, Inc.) to StemSpan SFEM culture medium (manufactured by […] Technologies Inc.) and added in advance to a cell culture 96-well plate (manufactured by BD Biosciences) at 100 μL/well, and the cells sorted with the FACS Aria II cell sorter (BD Biosciences) were then seeded at 10 cells/well.
[…] Thereafter, the cells were cultured in a CO2 incubator under conditions of 37° C. and 5% CO2 for 1 week.
After culture, the cells were stained with the antibodies for the surface markers c-Kit and Sca-1, Ter-119, B220, CD3, CD4, CD8a, Gr-1, and CD11b, and the ratio and post-growth cell count of a KLS fraction (c-Kit^+, Lin^−, Sca-1^+) or an mCherry-positive fraction given with use of a FACS Aria II cell sorter were analyzed by using FlowJo (BD Biosciences). The mCherry-positive fraction is a cell fraction expressing the Hoxb5 gene, and the KLS fraction is a cell fraction being c-Kit-positive, Lin-negative, and Sca-1-positive, and includes hematopoietic stem cells and multipotent progenitor cells as main components. […]

As to `C[C@H]1[C@@H](O)O[C@@H]2O[C@@]3(C)CC[C@H]4[C@H](C)CC[C@@H]1[C@@]24OO3` [Example 1-29, artenimol, reference compound], the KLS-positive rate was 8.92% (Table 3, compound 0.1 μM); 18% (Table 3, compound 0.3 μM); 20.05% (Table 3, compound 1 μM); 0% (Table 3, compound 3 μM); 0% (Table 3, compound 10 μM); 19.4% (Table 4, compound 0.1 μM). The KLS-positive rate was found to be 13.7% (Table 4, compound 0.3 μM); 11.3% (Table 4, compound 1 μM); 80.0% (Table 4, compound 3 μM); 50.0% (Table 4, compound 10 μM). The Viable cell count by setting is: (Table 3, compound 0.1 μM) 1563 cell; (Table 3, compound 0.3 μM) 2268 cell; (Table 3, compound 1 μM) 666.5 cell; (Table 3, compound 3 μM) 0 cell; (Table 3, compound 10 μM) 0 cell; (Table 4, compound 0.1 μM) 469.5 cell. Further, the Viable cell count is 215.0 cell (Table 4, compound 0.3 μM); 248.0 cell (Table 4, compound 1 μM); 4.5 cell (Table 4, compound 3 μM); 0.5 cell (Table 4, compound 10 μM). Further, the mCherry-positive rate was 16.9% (Table 3, compound 0.1 μM); 42.4% (Table 3, compound 0.3 μM); 84.8% (Table 3, compound 1 μM); 0% (Table 3, compound 3 μM); 0% (Table 3, compound 10 μM); 13.3% (Table 4, compound 0.1 μM). The same compound showed a mCherry-positive rate (Table 4, compound 0.3 μM) of 6.0%; a mCherry-positive rate (Table 4, compound 1 μM) of 3.9%; a mCherry-positive rate (Table 4, compound 3 μM) of 100.0%; a mCherry-positive rate (Table 4, compound 10 μM) of 50.0%.

`CO[C@@H]1O[C@@H]2O[C@@]3(C)CC[C@H]4[C@H](C)CC[C@@H]([C@H]1C)[C@@]24OO3` [Example 1-35, (3R,5aS,6R,8aS,9R,10R,12R,12aR)-10-Methoxy-3,6,9-trimethyldecahydro-12H-3,12-epoxypyrano[4,3-j][1,2]benzodioxepine]: the KLS-positive rate runs as follows: (Table 4, compound 0.1 μM) 13.8%; (Table 4, compound 0.3 μM) 19.9%; (Table 4, compound 1 μM) 17.9%; (Table 4, compound 3 μM) 48.7%; (Table 4, compound 10 μM) 46.7%. Also, the Viable cell count (Table 4, compound 0.1 μM) stood at 763.5 cell; the Viable cell count (Table 4, compound 0.3 μM) stood at 544.5 cell; the Viable cell count (Table 4, compound 1 μM) is listed as 554.0 cell; the Viable cell count (Table 4, compound 3 μM) came out at 104.5 cell; the Viable cell count (Table 4, compound 10 μM) came out at 121.5 cell. The same compound came in with a mCherry-positive rate (Table 4, compound 0.1 μM) of 3.0%; a mCherry-positive rate (Table 4, compound 0.3 μM) of 48.5%; a mCherry-positive rate (Table 4, compound 1 μM) of 74.0%; a mCherry-positive rate (Table 4, compound 3 μM) of 92.2%; a mCherry-positive rate (Table 4, compound 10 μM) of 99.6%.

On to `CC1=CO[C@@H]2O[C@@]3(C)CC[C@H]4[C@H](C)CC[C@@H]1[C@@]24OO3` [Example 1-28, (3R,5aS,6R,8aS,12R,12aR)-3,6,9-trimethyl-3,4,5,5a,6,7,8,8a-octahydro-12H-3,12-epoxypyrano[4,3-j][1,2]benzodioxepine], for which the KLS-positive rate by setting is: (Table 4, compound 0.1 μM) 21.5%; (Table 4, compound 0.3 μM) 13.5%; (Table 4, compound 1 μM) 10.5%; (Table 4, compound 3 μM) 16.5%; (Table 4, compound 10 μM) 41.2%. Moreover, the Viable cell count reads like this: (Table 4, compound 0.1 μM) 275.5 cell; (Table 4, compound 0.3 μM) 305.0 cell; (Table 4, compound 1 μM) 522.0 cell; (Table 4, compound 3 μM) 283.0 cell; (Table 4, compound 10 μM) 138.0 cell. Further, the mCherry-positive rate by setting is: (Table 4, compound 0.1 μM) 12.9%; (Table 4, compound 0.3 μM) 15.0%; (Table 4, compound 1 μM) 35.5%; (Table 4, compound 3 μM) 80.3%; (Table 4, compound 10 μM) 96.4%.

In the case of `C[C@H]1[C@H](Oc2ccccc2)O[C@@H]2O[C@@]3(C)CC[C@H]4[C@H](C)CC[C@@H]1[C@@]24OO3` [Example 1-25, (3R,5aS,6R,8aS,9R,10R,12R,12aR)-3,6,9-trimethyl-10-phenoxydecahydro-12H-3,12-epoxypyrano[4,3-j][1,2]benzodioxepine], the KLS-positive rate is, setting by setting: (Table 4, compound 0.1 μM) 40.0%; (Table 4, compound 0.3 μM) 0.0%; (Table 4, compound 1 μM) 0.0%; (Table 4, compound 3 μM) 50.0%; (Table 4, compound 10 μM) 0.0%. The Viable cell count worked out at 181.5 cell (Table 4, compound 0.1 μM); 0.5 cell (Table 4, compound 0.3 μM); 0.0 cell (Table 4, compound 1 μM); 0.5 cell (Table 4, compound 3 μM); 0.0 cell (Table 4, compound 10 μM). The mCherry-positive rate by setting is: (Table 4, compound 0.1 μM) 52.3%; (Table 4, compound 0.3 μM) 0.0%; (Table 4, compound 1 μM) 0.0%; (Table 4, compound 3 μM) 50.0%; (Table 4, compound 10 μM) 0.0%.

In the case of `CC(=O)OCCOC1O[C@@H]2O[C@@]3(C)CC[C@H]4[C@H](C)CC[C@@H]([C@H]1C)[C@@]24OO3` (stereo in doubt) [Example 1-26, 2-{[(3R,5aS,6R,8aS,9R,10S,12R,12aR)-3,6,9-Trimethyldecahydro-12H-3,12-epoxypyrano[4,3-j][1,2]benzodioxepin-10-yl]oxy}ethyl acetate], the KLS-positive rate by setting is: (Table 4, compound 0.1 μM) 56.1%; (Table 4, compound 0.3 μM) 68.5%; (Table 4, compound 1 μM) 55.4%; (Table 4, compound 3 μM) 26.9%; (Table 4, compound 10 μM) 28.9%. In addition, the Viable cell count by setting is: (Table 4, compound 0.1 μM) 13.5 cell; (Table 4, compound 0.3 μM) 48.5 cell; (Table 4, compound 1 μM) 20.0 cell; (Table 4, compound 3 μM) 43.5 cell; (Table 4, compound 10 μM) 30.5 cell. Moreover, the mCherry-positive rate reads like this: (Table 4, compound 0.1 μM) 80.7%; (Table 4, compound 0.3 μM) 95.0%; (Table 4, compound 1 μM) 96.7%; (Table 4, compound 3 μM) 100.0%; (Table 4, compound 10 μM) 100.0%.

For `C[C@H]1[C@H](NS(C)(=O)=O)O[C@@H]2O[C@@]3(C)CC[C@H]4[C@H](C)CC[C@@H]1[C@@]24OO3` [Example 1-11, N-[(3R,5aS,6R,8aS,9R,10R,12R,12aR)-3,6,9-Trimethyldecahydro-12H-3,12-epoxypyrano[4,3-j][1,2]benzodioxepin-10-yl]methanesulfonamide], the KLS-positive rate by setting is: (Table 4, compound 0.1 μM) 13.2%; (Table 4, compound 0.3 μM) 17.6%; (Table 4, compound 1 μM) 26.0%; (Table 4, compound 3 μM) 32.4%; (Table 4, compound 10 μM) 100.0%. Also, the Viable cell count is, setting by setting: (Table 4, compound 0.1 μM) 452.5 cell; (Table 4, compound 0.3 μM) 267.0 cell; (Table 4, compound 1 μM) 196.0 cell; (Table 4, compound 3 μM) 31.0 cell; (Table 4, compound 10 μM) 1.5 cell. The mCherry-positive rate (Table 4, compound 0.1 μM) stood at 14.3%; the mCherry-positive rate (Table 4, compound 0.3 μM) turned out to be 29.2%; the mCherry-positive rate (Table 4, compound 1 μM) is 60.4%; the mCherry-positive rate (Table 4, compound 3 μM) is reported as 86.2%; the mCherry-positive rate (Table 4, compound 10 μM) amounted to 100.0%.
